From ChEMBL document CHEMBL1201862, “PubChem BioAssay data set” (2004) come the findings set out here.

What all share (assay): growth of human tumour cells (NCI), 48 h
The subject of assay [1] is SW-620.
The test system of assay [2] is HOP-92.
Assay [3] has as its system NCI-H23.
The subject of assay [4] is HCT-116.
The test system of assay [5] is U-251.
Assay [6] concerns M14.
Assay [7] concerns DMS-273.
The test system of assay [8] is SK-MEL-28.
For assay [9], the system named is SK-OV-3.
The test system of assay [10] is MOLT-4.
For assay [11], the system named is TK-10.
In assay [12] the test system is LOX IMVI.
The test system of assay [13] is NCI-H460.
For assay [14], the system named is Malme-3M.
The test system of assay [15] is HOP-62.
Assay [16] concerns OVCAR-3.
In assay [17] the test system is A498.

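Protocol summary: plate cells (96-well), add compound at 5 concentrations, incubate 48 h, interpolate endpoints linearly. The concentration for 50% growth inhibition is given as GI50.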 Active and inactive are the calls of the source. Cut-off read from the data, not from the text of the source: active = GI50 up to about 1.1 µM and inactive = higher. Some results are limits rather than exact numbers.

In the case of `CC(C)=CCC/C(C)=C/C=C/C(C)=C/C1C[C@@]2(C(O)O1)[C@H](CCCO)/C(=C(/C)C=O)CC[C@]2(C)O` (stereo not given in full), the GI50 in [1] is 10.4 µM (inactive); in [2], < 0.01 µM (active); in assay [3], > 10 µM (inactive); in assay [4], 20.2 µM (inactive); in assay [5] it was > 10 µM (inactive); in assay [6] it was 13.5 µM (inactive). Besides, the GI50 in assay [7] was 1.39 µM (inactive); in assay [8], 15.9 µM (inactive); in [9], > 10 µM (inactive); in assay [10], 4.95 µM (inactive); in [11], 25.5 µM (inactive); in assay [12], 11.7 µM (inactive). Also, the results for the GI50 in [13] and in [14] were 6.64 µM (inactive) and 4.59 µM (inactive), respectively.
Take `N=S(=O)(c1ccccc1)c1ccccc1[N+](=O)[O-]` (stereo not given): the GI50 in assay [1], in [3], in assay [4], in assay [15], in assay [5] and in [16] was > 100 µM (inactive) in each case. Besides, the GI50 in [6], in [7], in assay [9], in [17], in [10] and in assay [11] was > 100 µM (inactive) each time. For the same compound, the GI50 in assay [13] and in assay [14] was > 100 µM (inactive) throughout.
For the compound `COc1ccccc1/C=C(\C#N)c1ccccc1`, the GI50 in assay [1] was 23.7 µM (inactive); in assay [2], 45 µM (inactive); in assay [3], 41.5 µM (inactive); in assay [4] it was 29.1 µM (inactive); in assay [15], 46.5 µM (inactive); in assay [5] it was 24.6 µM (inactive). For the same compound, the GI50 was 19.5 µM (inactive) in [16]; 32.8 µM (inactive) in [6]; 16.8 µM (inactive) in assay [7]; 45.5 µM (inactive) in [8]; 26.7 µM (inactive) in [9]; 24.2 µM (inactive) in [17]. Also, the GI50 in assay [10] is 16.6 µM (inactive); in assay [11] it was 40.7 µM (inactive); in [12] it was 46.9 µM (inactive); in [13], 23.8 µM (inactive).
For `CCCCNC(=O)N/C=C1\C(=O)Oc2ccccc2C1=O`, the GI50 in [1] is 58.7 µM (inactive); in assay [2], 24.9 µM (inactive); in assay [3], 54.6 µM (inactive); in assay [4], 43.9 µM (inactive); in assay [15] it was 47.5 µM (inactive); in [6] it was 41.7 µM (inactive). Further, the GI50 in assay [7] was 76.6 µM (inactive); in [8], 30.1 µM (inactive); in [10], 35.3 µM (inactive); in [11], 79.4 µM (inactive); in [12], 70.1 µM (inactive); in assay [13] it was > 100 µM (inactive).
For the compound `C#Cc1cccc(N2C(=O)c3c(c(-c4ccccc4)c(-c4ccc(Cc5ccc(-c6c(-c7ccccc7)c7c(c(-c8ccccc8)c6-c6ccccc6)C(=O)N(c6cccc(C#C)c6)C7=O)cc5)cc4)c(-c4ccccc4)c3-c3ccccc3)C2=O)c1`, the GI50 in assay [1] is 33 µM (inactive); in assay [2], 2.79 µM (inactive); in assay [3], 31.2 µM (inactive); in assay [4], 21 µM (inactive); in assay [15], 25.8 µM (inactive); in [5], 33 µM (inactive). The GI50 in [16] was 44.3 µM (inactive); in assay [6], 16.9 µM (inactive); in assay [7] it was 52.2 µM (inactive); in assay [8], > 100 µM (inactive); in assay [10] it was 14.3 µM (inactive); in assay [11], 17.9 µM (inactive). Besides, the GI50 in [13] was 43.2 µM (inactive); in assay [14] it was 45 µM (inactive).
